# Results from publication PMC9078697, “Discovery and preliminary SAR of 14-aryloxy-andrographolide derivatives as antibacterial agents with immunosuppressant activity” (RSC Advances, 2018).
# How the values were obtained:
# Type in all cases: cell-based
# E. coli = assay: Bacteriostatic screening (growth, OD630) against E. coli; conditions: for inhibition rate (%) EC: at 250 μM of the tested compound; for inhibition rate EC (symbol /): at 250 μM of tested compound
# Procedure: (§1) The strategy in this study was to submit these synthesized compounds to a preliminary screening test against E. coli, S. aureus and E. faecalis (ciprofloxacin was used as a reference compound; see Table 1). […] The tested compound or ciprofloxacin (positive drug) was dissolved in DMSO and diluted with LB liquid medium into a stock solution containing 20% DMSO before use; the stock solution of the carrier was 20% DMSO in LB liquid medium. All the experiments, including blank controls, were performed in triplicate. Bacteriostatic screening was performed by applying a modified protocol of the National Committee on Clinical Laboratory Standards (NCCLS).[29] Briefly, E. coli, S. aureus and E. faecalis cells (American Type Culture Collection, ATCC) were grown in LB plate medium for one passage, then seeded in LB liquid medium and cultured at 37 °C for 12 h. After being diluted 1000 times, 190 μL diluted cells were aliquoted to 96-well plates; then, 10 μL stock solution of carrier or a gradient amount of the tested compound or the positive compound, ciprofloxacin, were added; the final concentration of DMSO was 1% in all wells. The blank controls contained 1% DMSO and LB medium but no bacterial cells.
# S. aureus = assay: Bacteriostatic screening (growth, OD630) against S. aureus; conditions: for inhibition rate (%) SA: at 250 μM of the tested compound; for inhibition rate SA (symbol /): at 250 μM of tested compound
# Procedure: as §1
# E. faecalis = assay: Bacteriostatic screening (growth, OD630) against E. faecalis; conditions: for inhibition rate (%) EF: at 250 μM of the tested compound; for IC50: 24 h, IC50 generated when inhibition at 250 μM was higher than 80%
# Procedure: as §1
compound,measurement,setting,value
"C=C1CCC2C3(C)COC(C)(C)OC3CCC2(C)C1CC=C1C(=O)OCC1Oc1ccc([N+](=O)[O-])c(OC)c1 (stereo not drawn) [5b5, (14β)-(3′-Methoxy-4′-nitro)phenoxy-3,19-acetonylidene andrographolide]",inhibition rate (%) EC,E. coli; 250 µM,(18) %
same,inhibition rate (%) SA,S. aureus; 250 µM,(32) %
same,inhibition rate (%) EF,E. faecalis; 250 µM,(34) %
"C=C1CCC2C(C)(CO)C(O)CCC2(C)C1CC=C1C(=O)OCC1Oc1ccc([N+](=O)[O-])cc1OC (stereo not drawn) [6a3, (14α)-(2′-Methoxy-4′-nitro)phenoxy-andrographolide]",inhibition rate (%) EC,E. coli; 250 µM,(31) %
same,inhibition rate (%) SA,S. aureus; 250 µM,(17) %
same,IC50,E. faecalis,113 ± 14.3 µM
"C=C1CCC2C(C)(CO)C(O)CCC2(C)C1CC=C1C(=O)OCC1Oc1cccnc1[N+](=O)[O-] (stereo not drawn) [6b15, (14β)-(2′-Nitro-pyridinyl-3′-oxy)andrographolide]",inhibition rate (%) EC,E. coli,(14) %
same,inhibition rate (%) SA,S. aureus; 250 µM,(41) %
same,IC50,E. faecalis,29.3 ± 2.1 µM
"O=C(O)c1cn(C2CC2)c2cc(N3CCNCC3)c(F)cc2c1=O [Ciprofloxacin, reference compound]",IC50,"E. coli; Escherichia coli, 24 h, IC50 generated when inhibition at 250 μM was higher than 80%",0.31 ± 0.06 µM
same,IC50,"S. aureus; Staphylococcus aureus, 24 h, IC50 generated when inhibition at 250 μM was higher than 80%",0.4 ± 0.06 µM
same,IC50,E. faecalis; Enterococcus faecalis,2.3 ± 0.6 µM
"C=C1CCC2C(C)(CO)C(O)CCC2(C)C1CC=C1C(=O)OCC1Oc1ccccc1OC (stereo not drawn) [6b12, (14β)-(2′-Methoxy)phenoxy-andrographolide]",inhibition rate (%) EC,E. coli,(12) %
same,inhibition rate (%) SA,S. aureus; 250 µM,(13) %
same,IC50,E. faecalis,20.8 ± 4.5 µM
"C=C1CCC2C(C)(CO)C(O)CCC2(C)C1CC=C1C(=O)OCC1Oc1ccc([N+](=O)[O-])c(OC)c1 (stereo not drawn) [6b5, (14β)-(3′-Methoxy-4′-nitro)phenoxy-andrographolide]",inhibition rate (%) EC,E. coli; 250 µM,(23) %
same,inhibition rate (%) SA,S. aureus; 250 µM,(37) %
same,IC50,E. faecalis,21.8 ± 2.5 µM
"C=C1CCC2C(C)(CO)C(O)CCC2(C)C1CC=C1C(=O)OCC1Oc1cccc(OC)c1 (stereo not drawn) [6b13, (14β)-(3′-Methoxy)phenoxy-andrographolide]",inhibition rate (%) EC,E. coli,15%
same,inhibition rate (%) SA,S. aureus,13%
same,IC50,E. faecalis,138 ± 5.4 µM
(14β)-(2′-Carboxy ethyl ester-4′-nitro)phenoxy-andrographolide [6b1],inhibition rate (%) EC,E. coli,(17) %
same,inhibition rate (%) SA,S. aureus,(40) %
same,IC50,E. faecalis,27.7 ± 3.5 µM
"(14β)-(2′-Carboxy ethyl ester)phenoxy-3,19-acetonylidene andrographolide [5b8]",inhibition rate EC (symbol /),E. coli,/ (“/”represents no inhibition or lower than 10% inhibition rate at 250 μM of tested compound)
same,inhibition rate SA (symbol /),S. aureus,/ (“/”represents no inhibition or lower than 10% inhibition rate at 250 μM of tested compound)
same,inhibition rate (%) EF,E. faecalis,(22) %
"C=C1CCC2C(C)(CO)C(O)CCC2(C)C1CC=C1C(=O)OCC1Oc1ccc(C#N)cc1 (stereo not drawn) [6b10, (14β)-(4′-Cyano)phenoxy-andrographolide]",inhibition rate (%) EC,E. coli,(39) %
same,inhibition rate (%) SA,S. aureus,(29) %
same,IC50,E. faecalis,72.1 ± 9.4 µM
"C=C1CCC2C(C)(CO)C(O)CCC2(C)C1CC=C1C(=O)OCC1Oc1ccc([N+](=O)[O-])c(F)c1 (stereo not drawn) [6b4, (14β)-(3′-Fluoro-4′-nitro)phenoxy-andrographolide]",inhibition rate (%) EC,E. coli,(60) %
same,inhibition rate (%) SA,S. aureus,(28) %
same,IC50,E. faecalis,19.6 ± 2.7 µM
"C=C1CCC2C(C)(CO)C(O)CCC2(C)C1CC=C1C(=O)OCC1Oc1cccnc1[N+](=O)[O-] (stereo not drawn) [6a15, (14α)-(2′-Nitro-pyridinyl-3′-oxy)andrographolide]",inhibition rate (%) EC,E. coli,(14) %
same,inhibition rate (%) SA,S. aureus; 250 µM,(13) %
same,IC50,E. faecalis,56.7 ± 5.5 µM
"C=C1CCC2C(C)(CO)C(O)CCC2(C)C1CC=C1C(=O)OCC1Oc1ccc([N+](=O)[O-])c(OC)c1 (stereo not drawn) [6a5, (14α)-(3′-methoxy-4′-nitro)phenoxy-andrographolide]",inhibition rate (%) EC,E. coli; 250 µM,(11) %
same,inhibition rate (%) SA,S. aureus; 250 µM,(10) %
same,IC50,E. faecalis,50.4 ± 2.7 µM
"(14β)-(4′-Cyano)phenoxy-3,19-acetonylidene andrographolide [5b10]",inhibition rate (%) EC,E. coli,(20) %
same,inhibition rate (%) SA,S. aureus,(22) %
same,inhibition rate (%) EF,E. faecalis,(46) %
"C=C1CCC2C3(C)COC(C)(C)OC3CCC2(C)C1CC=C1C(=O)OCC1Oc1ccccc1OC (stereo not drawn) [5a12, (14α)-(2′-Methoxy)phenoxy-3,19-acetonylidene andrographolide]",inhibition rate EC (symbol /),E. coli,/ (“/”represents no inhibition or lower than 10% inhibition rate at 250 μM of tested compound)
same,inhibition rate SA (symbol /),S. aureus,/ (“/”represents no inhibition or lower than 10% inhibition rate at 250 μM of tested compound)
same,inhibition rate (%) EF,E. faecalis; 250 µM,(49) %
"C=C1CCC2C3(C)COC(C)(C)OC3CCC2(C)C1CC=C1C(=O)OCC1Oc1ccccc1C(=O)OCC (stereo not drawn) [5a8, (14α)-(2′-Carboxyethyl ester)phenoxy-3,19-acetonylidene andrographolide]",inhibition rate (%) EC,E. coli,(32) %
same,inhibition rate (%) SA,S. aureus,(20) %
same,inhibition rate (%) EF,E. faecalis,(33) %
"C=C1CCC2C(C)(CO)C(O)CCC2(C)C1CC=C1C(=O)OCC1Oc1ccccc1[N+](=O)[O-] (stereo not drawn) [6b6, (14β)-(2′-Nitro)phenoxy-andrographolide]",inhibition rate (%) EC,E. coli,(28) %
same,inhibition rate (%) SA,S. aureus,(12) %
same,IC50,E. faecalis,15.9 ± 9 µM
"(14α)-(2′-Fluoro-4′-nitro)phenoxy-3,19-acetonylidene andrographolide [5a2]",inhibition rate (%) EC,E. coli,(20) %
same,inhibition rate (%) SA,S. aureus,(20) %
same,IC50,E. faecalis,56.7 ± 6.5 µM
"C=C1CCC2C3(C)COC(C)(C)OC3CCC2(C)C1CC=C1C(=O)OCC1Oc1cccc([N+](=O)[O-])c1 (stereo not drawn) [5b7, (14β)-(3′-Nitro)phenoxy-3,19-acetonylidene andrographolide]",inhibition rate EC (symbol /),E. coli,/ (“/”represents no inhibition or lower than 10% inhibition rate at 250 μM of tested compound)
same,inhibition rate SA (symbol /),S. aureus,/ (“/”represents no inhibition or lower than 10% inhibition rate at 250 μM of tested compound)
same,inhibition rate EF (symbol /),E. faecalis; at 250 μM of tested compound,/ (“/”represents no inhibition or lower than 10% inhibition rate at 250 μM of tested compound)
"C=C1CCC2C3(C)COC(C)(C)OC3CCC2(C)C1CC=C1C(=O)OCC1Oc1ccc([N+](=O)[O-])cc1C(=O)OC (stereo not drawn) [5a1, (14α)-(2′-Carboxymethyl ester-4′-nitro)phenoxy-3,19-acetonylidene andrographolide]",inhibition rate EC (symbol /),E. coli,/ (“/”represents no inhibition or lower than 10% inhibition rate at 250 μM of tested compound)
same,inhibition rate (%) SA,S. aureus; 250 µM,(14) %
same,IC50,E. faecalis,51.2 ± 11.6 µM
"C=C1CCC2C3(C)COC(C)(C)OC3CCC2(C)C1CC=C1C(=O)OCC1Oc1cccnc1[N+](=O)[O-] (stereo not drawn) [5b15, (14β)-(2′-Nitro-pyridinyl-3′-oxy)-3,19-acetonylidene andrographolide]",inhibition rate EC (symbol /),E. coli,/ (“/”represents no inhibition or lower than 10% inhibition rate at 250 μM of tested compound)
same,inhibition rate (%) SA,S. aureus; 250 µM,(33) %
same,IC50,E. faecalis,38.4 ± 3.4 µM
"C=C1CCC2C3(C)COC(C)(C)OC3CCC2(C)C1CC=C1C(=O)OCC1Oc1ccc(OC)cc1 (stereo not drawn) [5b11, (14β)-(4′-Methoxy)phenoxy-3,19-acetonylidene andrographolide]",inhibition rate EC (symbol /),E. coli,/ (“/”represents no inhibition or lower than 10% inhibition rate at 250 μM of tested compound)
same,inhibition rate SA (symbol /),S. aureus,/ (“/”represents no inhibition or lower than 10% inhibition rate at 250 μM of tested compound)
same,inhibition rate (%) EF,E. faecalis,(39) %
"C=C1CCC2C(C)(CO)C(O)CCC2(C)C1CC=C1C(=O)OCC1Oc1ccc(OC)cc1 (stereo not drawn) [6b11, (14β)-(4′-Methoxy)phenoxy-andrographolide]",inhibition rate EC (symbol /),E. coli,/ (“/”represents no inhibition or lower than 10% inhibition rate at 250 μM of tested compound)
same,inhibition rate SA (symbol /),S. aureus,/ (“/”represents no inhibition or lower than 10% inhibition rate at 250 μM of tested compound)
same,inhibition rate (%) EF,E. faecalis,(17) %
"C=C1CCC2C(C)(CO)C(O)CCC2(C)C1CC=C1C(=O)OCC1Oc1ccnc2ccccc12 (stereo not drawn) [6a16, (14α)-(Quinolyl-4′-oxy)andrographolide]",inhibition rate EC (symbol /),E. coli,/ (“/”represents no inhibition or lower than 10% inhibition rate at 250 μM of tested compound)
same,inhibition rate (%) SA,S. aureus,(22) %
same,IC50,E. faecalis,65.8 ± 13.5 µM
"C=C1CCC2C(C)(CO)C(O)CCC2(C)C1CC=C1C(=O)OCC1Oc1ccccc1C(=O)OCC (stereo not drawn) [6a8, (14α)-(2′-Carboxyethyl ester)phenoxy-andrographolide]",inhibition rate (%) EC,E. coli,(21) %
same,inhibition rate (%) SA,S. aureus,(17) %
same,IC50,E. faecalis,83.3 ± 8.3 µM
"C=C1CCC2C3(C)COC(C)(C)OC3CCC2(C)C1CC=C1C(=O)OCC1Oc1ccc([N+](=O)[O-])cc1F (stereo not drawn) [5b2, (14β)-(2′-Fluoro-4′-nitro)phenoxy-3,19-acetonylidene andrographolide]",inhibition rate (%) EC,E. coli,(11) %
same,inhibition rate (%) SA,S. aureus,(26) %
same,inhibition rate (%) EF,E. faecalis,(56) %
"(14β)-(4′-Carboxy ethyl ester)phenoxy-3,19-acetonylidene andrographolide [5b9]",inhibition rate EC (symbol /),E. coli,/ (“/”represents no inhibition or lower than 10% inhibition rate at 250 μM of tested compound)
same,inhibition rate (%) SA,S. aureus,(15) %
same,inhibition rate (%) EF,E. faecalis,(42) %
"C=C1CCC2C3(C)COC(C)(C)OC3CCC2(C)C1CC=C1C(=O)OCC1Oc1ccccc1OC (stereo not drawn) [5b12, (14β)-(2′-Methoxy)phenoxy-3,19-acetonylidene andrographolide]",inhibition rate EC (symbol /),E. coli,/ (“/”represents no inhibition or lower than 10% inhibition rate at 250 μM of tested compound)
same,inhibition rate (%) SA,S. aureus,(24) %
same,inhibition rate (%) EF,E. faecalis; 250 µM,(52) %
